Several values for one entry are separate records, joined by “and”; a condition that tells them apart may be missing. Identical values can stand only once. Toxic doses and inconclusive results are not listed.

This is an account of results in PubChem BioAssay AID292 (DTP/NCI, 2004).

The assay has as its system B6C3F1 mice, ip Sarcoma M5076, median survival T/C. Put plainly: NCI In Vivo Anticancer Drug Screen. Data for tumor model Sarcoma M5076 (intraperitoneal) in B6C3F1 mice. To be noted: endpoint: median survival time, higher = longer survival. The procedure:
The antitumor activity of compounds was measured in mice bearing transplantable tumors. Survival or tumor size were measured and the results are expressed as the measurement made in the treated group (T) divided by the measurement made in the vehicle treated control group (C). The tumor model used in this assay is Sarcoma M5076 (intraperitoneal) in B6C3F1 mice

Setting [1] is: dose: 50.0 mg/kg/injection, schedule: Q04DX004 (ip), vehicle: saline with Tween-80.
[2] abbreviates: dose: 100.0 mg/kg/injection, schedule: Q04DX004 (ip), vehicle: saline with Tween-80.
Setting [3] is: dose: 200.0 mg/kg/injection, schedule: Q04DX004 (ip), vehicle: saline with Tween-80.
The mark [4] stands for this setting: dose: 400.0 mg/kg/injection, schedule: Q04DX004 (ip), vehicle: saline with Tween-80.

`Nc1nc(Br)nc2c1ncn2C1CC(O)C(CO)O1` (configuration not stated): the T/C was 102 % of control (dose: 7.5 mg/kg/injection, schedule: Q03HX009 (ip), vehicle: saline); 118 % of control (dose: 15.0 mg/kg/injection, schedule: Q03HX009 (ip), vehicle: saline); 109 % of control (dose: 30.0 mg/kg/injection, schedule: Q03HX009 (ip), vehicle: saline); 116 % of control (dose: 60.0 mg/kg/injection, schedule: Q03HX009 (ip), vehicle: saline); 113 % of control (dose: 120.0 mg/kg/injection, schedule: Q03HX009 (ip), vehicle: saline).
`COc1cc2c(c(OC)c1OC)-c1ccc(OC)c(=O)cc1[C@@H](N)CC2`: the T/C is, setting by setting: (dose: 5.0 mg/kg/injection, schedule: Q04DX004 (ip), vehicle: saline) 119 % of control; (dose: 5.0 mg/kg/injection, schedule: Q04DX004 (ip), vehicle: suspension in saline) 116 % of control; (dose: 8.6 mg/kg/injection, schedule: Q04DX004 (ip), vehicle: suspension in saline) 123 % of control; (dose: 10.0 mg/kg/injection, schedule: Q04DX004 (ip), vehicle: suspension in saline) 118 % of control; (dose: 20.0 mg/kg/injection, schedule: Q04DX004 (ip), vehicle: saline) 152 % of control; (dose: 24.0 mg/kg/injection, schedule: Q04DX004 (ip), vehicle: suspension in saline) 123 % of control. For the same compound, the T/C (dose: 40.0 mg/kg/injection, schedule: Q04DX004 (ip), vehicle: saline) is 157 % of control.
Consider `[Cl][Hg][Cl]`, for which the T/C by setting is: (dose: 0.38 mg/kg/injection, schedule: Q04DX004 (ip), vehicle: saline) 93 % of control; (dose: 0.39 mg/kg/injection, schedule: Q04DX004 (ip), vehicle: saline) 96 % of control; (dose: 0.75 mg/kg/injection, schedule: Q04DX004 (ip), vehicle: saline) 96 % of control; (dose: 0.78 mg/kg/injection, schedule: Q04DX004 (ip), vehicle: saline) 86 % of control; (dose: 1.5 mg/kg/injection, schedule: Q04DX004 (ip), vehicle: saline) 96 % of control; (dose: 1.56 mg/kg/injection, schedule: Q04DX004 (ip), vehicle: saline) 87 % of control. The T/C (dose: 3.0 mg/kg/injection, schedule: Q04DX004 (ip), vehicle: saline) is 93 % of control and the T/C (dose: 3.12 mg/kg/injection, schedule: Q04DX004 (ip), vehicle: saline) was 87 % of control.
For `CCC/C=C/C=C/C(=O)OC1/C(=C/C(=O)OC)CC2CC(C(C)O)OC(=O)CC(O)CC3CC(OC(C)=O)C(C)(C)C(O)(CC4C/C(=C/C(=O)OC)CC(/C=C/C(C)(C)C1(O)O2)O4)O3` (configuration not stated), the T/C is 102 % of control (dose: 10.0 micrograms/kg/injection, schedule: Q01DX009 (ip), vehicle: saline); 104 % of control (dose: 20.0 micrograms/kg/injection, schedule: Q01DX009 (ip), vehicle: saline); 107 % of control (dose: 40.0 micrograms/kg/injection, schedule: Q01DX009 (ip), vehicle: saline); 109 % of control (dose: 80.0 micrograms/kg/injection, schedule: Q01DX009 (ip), vehicle: saline).
On to `O=C(O)c1ccc(NC(=O)C2C(=O)C(=O)N(c3ccc(C(=O)O)cc3)C2=O)cc1` (configuration not stated), for which the T/C runs as follows: (dose: 50.0 mg/kg/injection, schedule: Q04DX004 (ip), vehicle: Klucel + Tween-80) 108 % of control; (dose: 100.0 mg/kg/injection, schedule: Q04DX004 (ip), vehicle: Klucel + Tween-80) 100 % of control; (dose: 200.0 mg/kg/injection, schedule: Q04DX004 (ip), vehicle: Klucel + Tween-80) 91 % of control; (dose: 400.0 mg/kg/injection, schedule: Q04DX004 (ip), vehicle: Klucel + Tween-80) 97 % of control.
In the case of `C[n+]1c(-c2ccc(/C=N/NC(=O)c3ccc(C(=O)N/N=C/c4ccc(-c5cn6ccccc6[n+]5C)cc4)cc3)cc2)cn2ccccc21`, the T/C under setting [1] is 104 % of control; the T/C under setting [2] was 98 % of control; the T/C under setting [3] was 108 % of control; the T/C under setting [4] is 115 % of control; the T/C (dose: 800.0 mg/kg/injection, schedule: Q04DX004 (ip), vehicle: saline with Tween-80) was 112 % of control.
On to `c1ccc2[nH]c(CN(CCN(Cc3nc4ccccc4[nH]3)Cc3nc4ccccc4[nH]3)Cc3nc4ccccc4[nH]3)nc2c1`, for which the T/C is 103 % of control (dose: 3.12 mg/kg/injection, schedule: Q04DX004 (ip), vehicle: other); 108 % of control (dose: 6.25 mg/kg/injection, schedule: Q04DX004 (ip), vehicle: other); 100 % of control (dose: 12.5 mg/kg/injection, schedule: Q04DX004 (ip), vehicle: other).
On to `COc1oc(C2C/C(=C/C(C)=C/C(C)=C/C(C)=C/c3ccc([N+](=O)[O-])cc3)CO2)c(C)c(=O)c1C` (configuration not stated), for which the T/C (dose: 1.0 mg/kg/injection, schedule: Q04DX004 (ip), vehicle: saline) was 100 % of control; the T/C (dose: 2.0 mg/kg/injection, schedule: Q04DX004 (ip), vehicle: saline) was 102 % of control and 104 % of control; the T/C (dose: 4.0 mg/kg/injection, schedule: Q04DX004 (ip), vehicle: saline) is 102 % of control and 103 % of control; the T/C (dose: 8.0 mg/kg/injection, schedule: Q04DX004 (ip), vehicle: saline) was 106 % of control and 115 % of control.
Turning to `OC1OCC(COc2ccc(Cl)cc2)OC1O` (configuration not stated), the T/C is 103 % of control under setting [1], 114 % of control under setting [2], 93 % of control under setting [3] and 104 % of control under setting [4].
For `O=C1CN(CCN2CC(=O)N(CN3CCOCC3)C(=O)C2)CC(=O)N1CN1CCOCC1`, the T/C runs as follows: (dose: 50.0 mg/kg/injection, schedule: Q04DX004 (ip), vehicle: water) 97 % of control; (dose: 100.0 mg/kg/injection, schedule: Q04DX004 (ip), vehicle: water) 109 % of control.
Take `COc1ccc(-n2cc[n+](C)c2/C=N\O)cc1`: the T/C (dose: 31.25 mg/kg/injection, schedule: Q04DX004 (ip), vehicle: saline with Tween-80) is 101 % of control; the T/C (dose: 62.5 mg/kg/injection, schedule: Q04DX004 (ip), vehicle: saline with Tween-80) was 94 % of control; the T/C (dose: 125.0 mg/kg/injection, schedule: Q04DX004 (ip), vehicle: saline with Tween-80) was 114 % of control.
Regarding `CN(C)C(=O)c1cccc(COc2ccc(N3C(N)=NC(N)=NC3(C)C)cc2Cl)c1`, the T/C (dose: 6.25 mg/kg/injection, schedule: Q04DX004 (ip), vehicle: suspension in saline) is 90 % of control; the T/C (dose: 12.5 mg/kg/injection, schedule: Q04DX004 (ip), vehicle: suspension in saline) was 102 % of control; the T/C (dose: 25.0 mg/kg/injection, schedule: Q04DX004 (ip), vehicle: suspension in saline) is 93 % of control; the T/C (dose: 50.0 mg/kg/injection, schedule: Q04DX004 (ip), vehicle: suspension in saline) was 97 % of control; the T/C (dose: 100.0 mg/kg/injection, schedule: Q04DX004 (ip), vehicle: suspension in saline) is 113 % of control.
Regarding `Clc1ccc(OCC(Cn2ccnc2)c2ccc(Cl)cc2)cc1` (configuration not stated), the T/C by setting is: (dose: 18.75 mg/kg/injection, schedule: Q04DX004 (ip), vehicle: saline with Tween-80) 115 % of control; (dose: 37.5 mg/kg/injection, schedule: Q04DX004 (ip), vehicle: saline with Tween-80) 102 % of control; (dose: 75.0 mg/kg/injection, schedule: Q04DX004 (ip), vehicle: saline with Tween-80) 101 % of control.
As for `Cc1noc2nc(-c3ccccc3)cc(N3CCN(C)CC3)c12`, the T/C by setting is: (dose: 25.0 mg/kg/injection, schedule: Q04DX004 (ip), vehicle: other) 95 % of control; (dose: 50.0 mg/kg/injection, schedule: Q04DX004 (ip), vehicle: other) 105 % of control; (dose: 100.0 mg/kg/injection, schedule: Q04DX004 (ip), vehicle: other) 99 % of control; (dose: 200.0 mg/kg/injection, schedule: Q04DX004 (ip), vehicle: other) 97 % of control.
On to `c1cc2n(n1)CCN2`, for which the T/C (dose: 50.0 mg/kg/injection, schedule: Q04DX005 (ip), vehicle: saline) was 86 % of control.
Regarding `CS(=O)(=O)CS(=O)(=O)OCCF`, the T/C was 152 % of control (dose: 12.5 mg/kg/injection, schedule: Q04DX004 (ip), vehicle: saline); 176 % of control (dose: 18.0 mg/kg/injection, schedule: Q04DX004 (ip), vehicle: saline); 189 % of control and 240 % of control (dose: 25.0 mg/kg/injection, schedule: Q04DX004 (ip), vehicle: saline); 244 % of control (dose: 30.0 mg/kg/injection, schedule: Q04DX004 (ip), vehicle: saline); 234 % of control and 262 % of control (dose: 50.0 mg/kg/injection, schedule: Q04DX004 (ip), vehicle: saline).
